Source: EP0665239A1, “Peptide derivatives of bactenecin endowed with antibacterial activity” (CONSIGLIO NAZIONALE DELLE RICERCHE, priority 1994, dated 1995)
Like-named read-outs stand apart in the source and are kept apart here. No end group written: not given here.

Columns and labels:
Assay type in all cases: cell-based
[1] = test system: Enterobacter cloacae ATCC 13047
Method: (§1) The antibacterial activity of the peptides of this invention was evaluated by determining the minimal inhibitory concentration (MIC) of bacterial growth.
(§2) Each peptide was incubated in microtitration plates, at concentrations that decreased form 320 to 0.1 micrograms/ml, in which the wells contained a final volume of 0.1 ml of Mueller-Hinton broth with 3-5x10⁴ bacteria at the semi-logarithmic growth phase.
(§3) In each experiment, the MIC of Bac5 and Bac7 were also measured, for the purpose of comparison.
(§4) In these assays, the following bacterial strains were used: Escherichia coli ATCC 25922, Salmonella typhimurium ATCC 14028, Klebsiella pneumoniae ATCC 13883 and Enterobacter cloacae ATCC 13047.

[2] = test system: Escherichia coli ATCC 25922
Method: as §1, §2, §3, §4

[3] = test system: Klebsiella pneumoniae ATCC 13883
Method: as §1, §2, §3, §4

[4] = test system: Salmonella typhimurium ATCC 14028
Method: as §1, §2, §3, §4

[5] = Enterobacter cloacae ATCC 13047, Mueller-Hinton broth, 3-5x10⁴ bacteria, 16 hours at 37° C
[6] = Escherichia coli ATCC 25922, Mueller-Hinton broth, 3-5x10⁴ bacteria, 16 hours at 37° C
[7] = Klebsiella pneumoniae ATCC 13883, Mueller-Hinton broth, 3-5x10⁴ bacteria, 16 hours at 37° C
[8] = Salmonella typhimurium ATCC 14028, Mueller-Hinton broth, 3-5x10⁴ bacteria, 16 hours at 37° C

## RRIRPRPPRLPRPRPRPLPFPRP [Peptide B]
[1]; Enterobacter cloacae ATCC 13047, MICs of Table 1 expressed in molar terms
  MIC: 0.2 to 0.4 µM
[1]; [5]
  MIC: 0.6 to 1.2 mg/L
[2]; Escherichia coli ATCC 25922, MICs of Table 1 expressed in molar terms
  MIC: 0.4 to 0.8 µM
[2]; [6]
  MIC: 1.2 to 2.5 mg/L
[3]; Klebsiella pneumoniae ATCC 13883, MICs of Table 1 expressed in molar terms
  MIC: 0.2 to 0.4 µM
[3]; [7]
  MIC: 0.6 to 1.2 mg/L
[4]; Salmonella typhimurium ATCC 14028, MICs of Table 1 expressed in molar terms
  MIC: 0.2 to 0.4 µM
[4]; [8]
  MIC: 0.6 to 1.2 mg/L

## RRIRPRPPRLPRPRPRPLPFPRPGPRPIPRPLPFP [Peptide A]
[1]; ATCC 13047
  MIC: 0.15 µM
[1]; [5]
  MIC: 0.6 mg/L
[2]; ATCC 25922
  MIC: 0.3 µM
[2]; [6]
  MIC: 1.2 mg/L
[3]; ATCC 13883
  MIC: 0.15 to 0.3 µM
[3]; ATCC 13883, 16 h
  MIC: 0.6 to 1.2 mg/L
[4]; ATCC 14028
  MIC: 0.15 to 0.3 µM
[4]; ATCC 14028, 16 h
  MIC: 0.6 to 1.2 mg/L

## RRIRPRPPRLPRPRPRPL [Peptide D, Arg-Arg-Ile-Arg-Pro-Arg-Pro-Pro-Arg-Leu-Pro-Arg-Pro-Arg-Pro-Arg-Pro-Leu]
[1]; ATCC 13047
  MIC: 0.5 to 1.0 µM
[1]; ATCC 13047, 16 h
  MIC: 1.2 to 2.5 mg/L
[2]; ATCC 25922
  MIC: 1.0 µM
[2]; [6]
  MIC: 2.5 mg/L
[3]; ATCC 13883
  MIC: 0.2 to 0.5 µM
[3]; ATCC 13883, 16 h
  MIC: 0.6 to 1.2 mg/L
[4]; ATCC 14028
  MIC: 0.5 µM
[4]; [8]
  MIC: 1.2 mg/L

## RFRPPIRRPPIRPPFYPPFRPPIRP [Peptide C]
[1]; ATCC 13047
  MIC: 0.8 to 1.6 µM
[1]; ATCC 13047, 16 h
  MIC: 2.5 to 5 mg/L
[2]; ATCC 25922
  MIC: 0.8 to 1.6 µM
[2]; ATCC 25922, 16 h
  MIC: 2.5 to 5 mg/L
[3]; ATCC 13883
  MIC: 0.8 µM
[3]; [7]
  MIC: 2.5 mg/L
[4]; ATCC 14028
  MIC: 0.8 µM
[4]; [8]
  MIC: 2.5 mg/L
